Bounds are passed on as bounds.

This assay has as its target T1, recombinant human Myt1 (full length PKMYT1) (Homo sapiens, UniProt Q99640).
T1 sequence (Q99640 1-499): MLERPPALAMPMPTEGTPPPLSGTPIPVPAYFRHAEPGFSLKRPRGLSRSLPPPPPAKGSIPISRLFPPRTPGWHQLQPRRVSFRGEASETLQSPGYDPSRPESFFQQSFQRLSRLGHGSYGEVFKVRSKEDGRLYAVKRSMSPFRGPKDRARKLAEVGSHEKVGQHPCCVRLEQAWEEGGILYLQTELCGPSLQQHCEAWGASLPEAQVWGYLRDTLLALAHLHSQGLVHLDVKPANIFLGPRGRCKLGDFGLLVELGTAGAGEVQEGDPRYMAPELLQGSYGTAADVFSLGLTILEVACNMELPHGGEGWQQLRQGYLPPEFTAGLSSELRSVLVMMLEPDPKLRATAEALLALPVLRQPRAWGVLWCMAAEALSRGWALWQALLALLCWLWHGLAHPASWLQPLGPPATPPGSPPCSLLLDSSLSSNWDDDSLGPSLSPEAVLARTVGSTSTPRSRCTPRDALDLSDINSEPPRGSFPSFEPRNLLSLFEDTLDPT
Nature of the assay: ADP-Glo assay (Myt1 kinase activity).
Consider `COC(C)(C)C#Cc1nc2c(-c3ccc(F)c4[nH]ncc34)c(N)c(=O)[nH]c2cc1C` [Example 072, 3-Amino-4-(7-fluoro-1H-indazol-4-yl)-6-(3-methoxy-3-methyl-but-1-ynyl)-7-methyl-1H-1,5-naphthyridin-2-one], for which the IC50 is 11.2 nM.

`Cc1c(C2CC2)ncc2c(-c3ccc(F)c4[nH]ncc34)c(N)c(=O)[nH]c12` [Example 165, 3-amino-7-cyclopropyl-4-(7-fluoro-1H-indazol-4-yl)-8-methyl-1H-1,6-naphthyridin-2-one]: the IC50 was < 10 nM.

As to `Cc1c(I)cnc2c(-c3ccc(F)c4[nH]ncc34)c(N)c(=O)[nH]c12` [Example 116, 3-Amino-4-(7-fluoro-1H-indazol-4-yl)-7-iodo-8-methyl-1H-1,5-naphthyridin-2-one], the IC50 was < 10 nM.

`Cc1c(C2CC2F)cnc2c(-c3ccc(F)c4[nH]ncc34)c(N)c(=O)[nH]c12` (centres unmarked) [Example 132, 3-Amino-7-(2-fluorocyclopropyl)-4-(7-fluoro-1H-indazol-4-yl)-8-methyl-1H-1,5-naphthyridin-2-one]: the IC50 is < 10 nM.

Turning to `COC(C)(C)C#Cc1cc(C)c2[nH]c(=O)c(N)c(-c3ccc(F)c4[nH]ncc34)c2n1` [Example 149, 3-Amino-4-(7-fluoro-1H-indazol-4-yl)-6-(3-methoxy-3-methyl-but-1-ynyl)-8-methyl-1H-1,5-naphthyridin-2-one], the IC50 is < 10 nM.

Take `Nc1c(-c2ccc(F)c3[nH]ncc23)c2nccc(Cl)c2[nH]c1=O` [Example 50, 3-Amino-8-chloro-4-(7-fluoro-1H-indazol-4-yl)-1H-1,5-naphthyridin-2-one]: the IC50 is < 10 nM.

In the case of `COc1cc(C)cc2[nH]c(=O)c(N)c(-c3ccc(F)c4[nH]ncc34)c12` [Example 102, 3-Amino-4-(7-fluoro-1H-indazol-4-yl)-5-methoxy-7-methyl-1H-quinolin-2-one], the IC50 amounted to 16 nM.

Take `Cc1cc2[nH]c(=O)c(N)c(-c3ccc(F)c4[nH]ncc34)c2nc1OCC(F)(F)F` [Example 066, 3-Amino-4-(7-fluoro-1H-indazol-4-yl)-7-methyl-6-(2,2,2-trifluoroethoxy)-1H-1,5-naphthyridin-2-one]: the IC50 was found to be 11.6 nM.

With `CSc1cnc2c(-c3ccc(F)c4[nH]ncc34)c(N)c(=O)[nH]c2c1C` [Example 141, 3-Amino-4-(7-fluoro-1H-indazol-4-yl)-8-methyl-7-methylsulfanyl-1H-1,5-naphthyridin-2-one], the IC50 was 10.4 nM.

Consider `Cc1cc2[nH]c(=O)c(N)c(-c3ccc(F)c4[nH]ncc34)c2nc1N1CCN(C)CC1` [Example 22, 3-Amino-4-(7-fluoro-1H-indazol-4-yl)-7-methyl-6-(4-methylpiperazin-1-yl)-1H-1,5-naphthyridin-2-one], for which the IC50 was < 10 nM.

On to `Cc1c(OC(C)C)cnc2c(-c3ccc(F)c4[nH]ncc34)c(N)c(=O)[nH]c12` [Example 138, 3-Amino-4-(7-fluoro-1H-indazol-4-yl)-7-isopropoxy-8-methyl-1H-1,5-naphthyridin-2-one], for which the concentration for half-maximal inhibition (IC50) worked out at 14.2 nM.

Consider `Nc1c(-c2ccc(F)c3[nH]ncc23)c2ncc(-c3ccns3)cc2[nH]c1=O` [Example 10, 3-Amino-4-(7-fluoro-1H-indazol-4-yl)-7-isothiazol-5-yl-1H-1,5-naphthyridin-2-one], for which the IC50 was 42.9 nM.

`Cc1cc2[nH]c(=O)c(N)c(-c3ccc(F)c4[nH]ncc34)c2nc1N1CCOCC1` [Example 25, 3-Amino-4-(7-fluoro-1H-indazol-4-yl)-7-methyl-6-morpholino-1H-1,5-naphthyridin-2-one]: the IC50 worked out at 18.8 nM.

For the compound `Cc1cc2[nH]c(=O)c(N)c(-c3ccc(F)c4[nH]ncc34)c2nc1OCCN(C)C` [Example 068, 3-Amino-6-[2-(dimethylamino)ethoxy]-4-(7-fluoro-1H-indazol-4-yl)-7-methyl-1H-1,5-naphthyridin-2-one], the IC50 stood at 17.5 nM.

Take `COc1cnc2c(-c3ccc(F)c4[nH]ncc34)c(N)c(=O)[nH]c2c1` [Example 6, 3-Amino-4-(7-fluoro-1H-indazol-4-yl)-7-methoxy-1H-1,5-naphthyridin-2-one]: the IC50 is 22.6 nM.

Take `Cc1cc2[nH]c(=O)c(N)c(-c3ccc(F)c4[nH]ncc34)c2nc1N1CC2(COC2)C1` [Example 26, 3-Amino-4-(7-fluoro-1H-indazol-4-yl)-7-methyl-6-(2-oxa-6-azaspiro[3.3]heptan-6-yl)-1H-1,5-naphthyridin-2-one]: the half-inhibitory concentration (IC50) was < 10 nM.

Regarding `Cc1c(C2CC2(C)C)cnc2c(-c3ccc(F)c4[nH]ncc34)c(N)c(=O)[nH]c12` (centres unmarked) [Example 130, 3-Amino-7-(2,2-dimethylcyclopropyl)-4-(7-fluoro-1H-indazol-4-yl)-8-methyl-1H-1,5-naphthyridin-2-one], the IC50 stood at 12.3 nM.

As to `Cc1cc2[nH]c(=O)c(N)c(-c3ccc(F)c4[nH]ncc34)c2nc1OCC1(C#N)CC1` [Example 58, 1-[[7-Amino-8-(7-fluoro-1H-indazol-4-yl)-3-methyl-6-oxo-5H-1,5-naphthyridin-2-yl]oxymethyl]cyclopropanecarbonitrile], the 50% inhibitory concentration (IC50) was < 10 nM.

Regarding `Cc1ncc(OCCC(F)F)c2c(-c3ccc(F)c4[nH]ncc34)c(N)c(=O)[nH]c12` [Example 188, 3-Amino-5-(3,3-difluoropropoxy)-4-(7-fluoro-1H-indazol-4-yl)-8-methyl-1H-1,7-naphthyridin-2-one], the IC50 is 15 nM.

Regarding `CCc1nc2c(-c3ccc(F)c4[nH]ncc34)c(N)c(=O)[nH]c2cc1C` [Example 157, 3-Amino-6-ethyl-4-(7-fluoro-1H-indazol-4-yl)-7-methyl-1H-1,5-naphthyridin-2-one], the half-inhibitory concentration (IC50) worked out at 15.6 nM.

As for `Cc1cc2[nH]c(=O)c(N)c(-c3ccc(F)c4[nH]ncc34)c2nc1OC(F)F` [Example 062, 3-Amino-6-(difluoromethoxy)-4-(7-fluoro-1H-indazol-4-yl)-7-methyl-1H-1,5-naphthyridin-2-one], the concentration for half-maximal inhibition (IC50) worked out at 14.6 nM.

With `Cc1ncc(OCC2CC2)c2c(-c3ccc(F)c4[nH]ncc34)c(N)c(=O)[nH]c12` [Example 191, 3-Amino-5-(cyclopropylmethoxy)-4-(7-fluoro-1H-indazol-4-yl)-8-methyl-1H-1,7-naphthyridin-2-one], the IC50 was 15.7 nM.

As for `Cc1cc(C#CC2COC2)nc2c(-c3ccc(F)c4[nH]ncc34)c(N)c(=O)[nH]c12` [Example 150, 3-Amino-4-(7-fluoro-1H-indazol-4-yl)-8-methyl-6-[2-(oxetan-3-yl)ethynyl]-1H-1,5-naphthyridin-2-one], the 50% inhibitory concentration (IC50) stood at 15.2 nM.

Regarding `Cc1ncc(OC(F)(F)F)c2c(-c3ccc(F)c4[nH]ncc34)c(N)c(=O)[nH]c12` [Example 192, 3-Amino-4-(7-fluoro-1H-indazol-4-yl)-8-methyl-5-(trifluoromethoxy)-1H-1,7-naphthyridin-2-one], the IC50 was < 10 nM.

For `CC(C)(O)c1cnc2c(-c3ccc(F)c4[nH]ncc34)c(N)c(=O)[nH]c2c1` [Example 20, 3-Amino-4-(7-fluoro-1H-indazol-4-yl)-7-(1-hydroxy-1-methyl-ethyl)-1H-1,5-naphthyridin-2-one], the concentration for half-maximal inhibition (IC50) was 24.2 nM.

As to `Cc1cc2[nH]c(=O)c(N)c(-c3ccc(F)c4[nH]ncc34)c2nc1C(F)(F)F` [Example 097, 3-Amino-4-(7-fluoro-1H-indazol-4-yl)-7-methyl-6-(trifluoromethyl)-1H-1,5-naphthyridin-2-one], the IC50 was 24.9 nM.

As a reminder, the IC50 is the point on the concentration scale where inhibition reaches its midpoint.

Source of the values: patent publication US20260078122A1, “INDAZOLE COMPOUNDS AS PKMYT1 KINASE INHIBITORS” (Hoffmann-La Roche Inc., priority 2023, published 2026).
